In ChEMBL document CHEMBL1177794, “Broad spectrum alkynyl inhibitors of T315I Bcr-Abl” (Bioorg Med Chem Lett, 2010):

What was measured:
[1] = target: Mitogen-activated protein kinase 15 (Homo sapiens) (UniProt Q8TD08); experiment: Inhibition of ERK8 at 10 uM; settings: values are per cent of control
[2] = target: Serine/threonine-protein kinase DCLK1 (Homo sapiens) (UniProt O15075); experiment: Inhibition of DCAMKL1 at 10 uM; values are per cent of control
[3] = target: Dual specificity protein kinase CLK3 (Homo sapiens) (UniProt P49761); experiment: Inhibition of CLK3 at 10 uM; settings: values are per cent of control
[4] = target: Phosphorylase b kinase gamma catalytic chain, liver/testis isoform (Homo sapiens) (UniProt P15735); experiment: Inhibition of PHKG2 at 10 uM
[5] = target: Phosphatidylinositol 5-phosphate 4-kinase type-2 beta (Homo sapiens) (UniProt P78356); experiment: Inhibition of PIP5K2B at 10 uM
[6] = tested on: Mast/stem cell growth factor receptor Kit (Homo sapiens), P10721 [A829P]; experiment: Inhibition of KIT A829P mutant at 10 uM; settings: values are per cent of control
[7] = target: Mitogen-activated protein kinase kinase kinase 10 (Homo sapiens) (UniProt Q02779); experiment: Inhibition of MLK2 at 10 uM
Sequence of Mitogen-activated protein kinase kinase kinase 10 (Homo sapiens) (Q02779 whole entry, looked up): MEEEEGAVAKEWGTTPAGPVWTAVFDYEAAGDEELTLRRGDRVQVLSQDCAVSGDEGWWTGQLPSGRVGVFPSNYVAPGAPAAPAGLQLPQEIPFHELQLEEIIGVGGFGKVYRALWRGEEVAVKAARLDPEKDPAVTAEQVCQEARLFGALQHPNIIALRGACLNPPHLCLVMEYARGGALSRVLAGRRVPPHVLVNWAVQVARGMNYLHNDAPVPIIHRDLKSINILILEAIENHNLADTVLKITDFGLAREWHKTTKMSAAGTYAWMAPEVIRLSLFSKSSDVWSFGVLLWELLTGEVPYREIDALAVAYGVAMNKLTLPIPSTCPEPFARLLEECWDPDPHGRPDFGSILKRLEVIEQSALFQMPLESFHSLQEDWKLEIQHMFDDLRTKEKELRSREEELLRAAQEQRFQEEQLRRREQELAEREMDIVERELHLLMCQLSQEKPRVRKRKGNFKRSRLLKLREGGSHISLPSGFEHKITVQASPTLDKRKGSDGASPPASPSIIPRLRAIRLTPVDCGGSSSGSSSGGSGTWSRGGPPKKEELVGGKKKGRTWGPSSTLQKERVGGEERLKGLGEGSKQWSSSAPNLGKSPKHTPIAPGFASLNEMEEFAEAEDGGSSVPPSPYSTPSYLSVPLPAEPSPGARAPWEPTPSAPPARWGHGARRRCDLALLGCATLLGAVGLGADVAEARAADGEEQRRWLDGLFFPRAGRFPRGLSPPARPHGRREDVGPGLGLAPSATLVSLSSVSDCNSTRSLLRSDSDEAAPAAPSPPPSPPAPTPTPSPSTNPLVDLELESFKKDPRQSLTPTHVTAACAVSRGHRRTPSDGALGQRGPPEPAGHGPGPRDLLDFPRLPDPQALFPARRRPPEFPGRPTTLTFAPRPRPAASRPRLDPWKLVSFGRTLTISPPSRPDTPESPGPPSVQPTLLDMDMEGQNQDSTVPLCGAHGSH

[8] = target: Serine/threonine-protein kinase Nek7 (Homo sapiens) (UniProt Q8TDX7); experiment: Inhibition of NEK7 at 10 uM
Sequence of Serine/threonine-protein kinase Nek7 (Homo sapiens) (Q8TDX7 whole entry, looked up, the tested form may be a part): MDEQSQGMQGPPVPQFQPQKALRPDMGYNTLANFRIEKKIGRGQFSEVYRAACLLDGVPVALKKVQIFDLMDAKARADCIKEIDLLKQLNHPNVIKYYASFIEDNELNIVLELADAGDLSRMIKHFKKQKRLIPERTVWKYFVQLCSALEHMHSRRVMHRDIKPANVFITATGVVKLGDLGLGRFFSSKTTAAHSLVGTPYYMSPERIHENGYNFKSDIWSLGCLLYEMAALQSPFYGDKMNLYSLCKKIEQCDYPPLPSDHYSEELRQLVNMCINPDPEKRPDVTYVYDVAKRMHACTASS

[9] = tested on: eIF-2-alpha kinase GCN2 (Homo sapiens), Q9P2K8 [S808G]; experiment: Inhibition of GCN2 Domain2 S808G mutant at 10 uM; settings: values are per cent of control
[10] = tested on: BaF3; experiment: Antiproliferative activity against mouse BAF3 cells expressing wild type Bcr-Abl; type: functional, cell-based
[11] = target: Protein kinase C theta type (Homo sapiens) (UniProt Q04759); experiment: Inhibition of PRKCQ at 10 uM
[12] = target: Discoidin domain-containing receptor 2 (Homo sapiens) (UniProt Q16832); experiment: Inhibition of DDR2 at 10 uM; settings: values are per cent of control
[13] = target: Ephrin type-A receptor 5 (Homo sapiens) (UniProt P54756); experiment: Inhibition of EPHA5 at 10 uM; values are per cent of control
[14] = target: Receptor-type tyrosine-protein kinase FLT3 (Homo sapiens) (UniProt P36888); experiment: Inhibition of FLT3 at 10 uM; settings: values are per cent of control
[15] = target: Ribosomal protein S6 kinase alpha-5 (Homo sapiens) (UniProt O75582); experiment: Inhibition of RPS6KA5 N-terminal domain1 at 10 uM
[16] = target: Mitogen-activated protein kinase kinase kinase 12 (Homo sapiens) (UniProt Q12852); experiment: Inhibition of DLK at 10 uM; values are per cent of control
[17] = target: Activin receptor type-1 (Homo sapiens) (UniProt Q04771); experiment: Inhibition of ACVR1 at 10 uM; settings: values are per cent of control
[18] = target: cGMP-dependent protein kinase 1 (Homo sapiens) (UniProt Q13976); experiment: Inhibition of PRKG1 at 10 uM; settings: values are per cent of control
[19] = target: Serine/threonine-protein kinase/endoribonuclease IRE1 (Homo sapiens) (UniProt O75460); experiment: Inhibition of ERN1 at 10 uM; settings: values are per cent of control
[20] = target: Mast/stem cell growth factor receptor Kit (Homo sapiens) (UniProt P10721); experiment: Inhibition of KIT at 10 uM; settings: values are per cent of control
[21] = target: Serine/threonine-protein kinase SIK3 (Homo sapiens) (UniProt Q9Y2K2); experiment: Inhibition of QSK at 10 uM
[22] = target: cAMP-dependent protein kinase catalytic subunit beta (Homo sapiens) (UniProt P22694); experiment: Inhibition of PKAC-beta at 10 uM; settings: values are per cent of control
[23] = tested on: Epidermal growth factor receptor (Homo sapiens), P00533 [G719C]; experiment: Inhibition of EGFR G719C mutant at 10 uM; values are per cent of control
Sequence of Epidermal growth factor receptor (Homo sapiens), P00533 [G719C] (P00533 whole entry G719C): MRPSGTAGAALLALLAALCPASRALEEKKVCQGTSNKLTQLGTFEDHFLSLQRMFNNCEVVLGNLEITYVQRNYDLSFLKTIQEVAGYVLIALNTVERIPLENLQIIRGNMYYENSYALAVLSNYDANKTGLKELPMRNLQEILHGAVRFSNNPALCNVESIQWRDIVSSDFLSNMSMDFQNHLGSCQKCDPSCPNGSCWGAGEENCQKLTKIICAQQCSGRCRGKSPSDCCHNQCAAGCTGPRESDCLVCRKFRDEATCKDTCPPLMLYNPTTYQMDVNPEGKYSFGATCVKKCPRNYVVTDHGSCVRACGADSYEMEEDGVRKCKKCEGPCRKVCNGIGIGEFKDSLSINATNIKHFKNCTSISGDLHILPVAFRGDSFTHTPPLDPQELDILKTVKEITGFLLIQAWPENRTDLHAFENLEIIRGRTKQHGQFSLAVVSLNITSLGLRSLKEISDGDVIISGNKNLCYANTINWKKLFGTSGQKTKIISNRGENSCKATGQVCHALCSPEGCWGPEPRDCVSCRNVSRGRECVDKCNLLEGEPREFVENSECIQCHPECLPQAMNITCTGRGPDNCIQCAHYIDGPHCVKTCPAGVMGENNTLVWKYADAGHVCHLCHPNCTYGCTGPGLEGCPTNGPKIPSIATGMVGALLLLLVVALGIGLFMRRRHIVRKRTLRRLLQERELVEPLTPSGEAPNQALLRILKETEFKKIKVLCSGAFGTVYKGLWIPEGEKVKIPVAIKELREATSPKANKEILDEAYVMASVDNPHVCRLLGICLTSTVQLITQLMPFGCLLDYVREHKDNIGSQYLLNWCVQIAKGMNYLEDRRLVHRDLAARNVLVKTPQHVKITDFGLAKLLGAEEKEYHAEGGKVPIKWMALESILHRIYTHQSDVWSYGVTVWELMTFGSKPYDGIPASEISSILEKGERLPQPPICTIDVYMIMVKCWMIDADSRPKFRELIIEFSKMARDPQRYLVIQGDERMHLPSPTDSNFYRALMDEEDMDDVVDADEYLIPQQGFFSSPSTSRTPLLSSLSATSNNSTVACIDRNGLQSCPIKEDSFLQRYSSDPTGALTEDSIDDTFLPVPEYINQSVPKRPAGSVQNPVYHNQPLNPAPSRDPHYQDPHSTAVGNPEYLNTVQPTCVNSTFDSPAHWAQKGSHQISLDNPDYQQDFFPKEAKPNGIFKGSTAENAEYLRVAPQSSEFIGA

[24] = target: Serine/threonine-protein kinase PRP4 homolog (Homo sapiens) (UniProt Q13523); experiment: Inhibition of PRP4 at 10 uM
[25] = target: Uncharacterized serine/threonine-protein kinase SBK3 (Homo sapiens) (UniProt P0C264); experiment: Inhibition of SgK110 at 10 uM
[26] = target: Mitogen-activated protein kinase kinase kinase 19 (Homo sapiens) (UniProt Q56UN5); experiment: Inhibition of YSK4 at 10 uM; settings: values are per cent of control
[27] = target: Tyrosine-protein kinase Fyn (Homo sapiens) (UniProt P06241); experiment: Inhibition of FYN at 10 uM; values are per cent of control
Sequence of Tyrosine-protein kinase Fyn (Homo sapiens) (P06241 2-537 limits assumed): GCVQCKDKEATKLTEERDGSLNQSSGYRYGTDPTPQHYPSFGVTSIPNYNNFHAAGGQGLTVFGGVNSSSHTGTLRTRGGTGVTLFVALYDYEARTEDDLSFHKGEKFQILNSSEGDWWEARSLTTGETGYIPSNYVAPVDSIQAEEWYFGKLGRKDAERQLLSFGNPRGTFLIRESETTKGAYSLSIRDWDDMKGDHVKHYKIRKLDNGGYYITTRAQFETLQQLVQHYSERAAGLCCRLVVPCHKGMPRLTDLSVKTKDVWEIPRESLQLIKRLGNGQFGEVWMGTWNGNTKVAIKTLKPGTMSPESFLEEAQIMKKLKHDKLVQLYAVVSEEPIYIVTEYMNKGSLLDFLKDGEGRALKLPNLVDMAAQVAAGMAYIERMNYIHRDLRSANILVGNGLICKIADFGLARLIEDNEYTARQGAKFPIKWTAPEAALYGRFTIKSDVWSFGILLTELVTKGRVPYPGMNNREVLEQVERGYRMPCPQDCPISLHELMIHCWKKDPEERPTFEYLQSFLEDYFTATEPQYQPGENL

[28] = target: Tyrosine-protein kinase receptor TYRO3 (Homo sapiens) (UniProt Q06418); experiment: Inhibition of TYRO3 at 10 uM; settings: values are per cent of control
[29] = tested on: BaF3; experiment: Antiproliferative activity against mouse BAF3 cells expressing Bcr-Abl T315I mutant; type: functional, cell-based
[30] = target: Serine/threonine-protein kinase PLK4 (Homo sapiens) (UniProt O00444); experiment: Inhibition of PLK4 at 10 uM
[31] = target: SRSF protein kinase 1 (Homo sapiens) (UniProt Q96SB4); experiment: Inhibition of SRPK1 at 10 uM
[32] = target: Serine/threonine-protein kinase VRK2 (Homo sapiens) (UniProt Q86Y07); experiment: Inhibition of VRK2 at 10 uM; settings: values are per cent of control
[33] = target: Proto-oncogene tyrosine-protein kinase receptor Ret (Homo sapiens) (UniProt P07949); experiment: Inhibition of RET at 10 uM; values are per cent of control
[34] = target: Activated CDC42 kinase 1 (Homo sapiens) (UniProt Q07912); experiment: Inhibition of TNK2 at 10 uM; settings: values are per cent of control
[35] = target: Cyclin-dependent kinase 17 (Homo sapiens) (UniProt Q00537); experiment: Inhibition of PCTK2 at 10 uM; settings: values are per cent of control
Sequence of Cyclin-dependent kinase 17 (Homo sapiens) (Q00537 whole entry, looked up): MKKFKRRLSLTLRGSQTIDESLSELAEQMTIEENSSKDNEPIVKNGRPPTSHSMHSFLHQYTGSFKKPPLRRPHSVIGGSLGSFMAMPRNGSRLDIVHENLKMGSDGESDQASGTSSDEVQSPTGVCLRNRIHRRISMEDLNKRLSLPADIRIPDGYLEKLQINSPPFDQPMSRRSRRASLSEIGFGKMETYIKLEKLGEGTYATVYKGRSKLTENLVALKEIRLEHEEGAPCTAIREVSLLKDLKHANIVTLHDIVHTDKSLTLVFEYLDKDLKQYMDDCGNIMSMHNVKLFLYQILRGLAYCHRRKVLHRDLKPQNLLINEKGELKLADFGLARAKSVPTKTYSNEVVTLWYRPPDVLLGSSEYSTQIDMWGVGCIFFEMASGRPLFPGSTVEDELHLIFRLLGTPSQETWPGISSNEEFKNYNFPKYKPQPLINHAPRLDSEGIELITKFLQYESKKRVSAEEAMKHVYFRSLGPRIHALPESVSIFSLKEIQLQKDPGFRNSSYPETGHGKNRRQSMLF

[36] = target: Interferon-induced, double-stranded RNA-activated protein kinase (Homo sapiens) (UniProt P19525); experiment: Inhibition of PRKR at 10 uM
[37] = target: Serine/threonine-protein kinase MARK2 (Homo sapiens) (UniProt Q7KZI7); experiment: Inhibition of MARK2 at 10 uM; settings: values are per cent of control
Sequence of Serine/threonine-protein kinase MARK2 (Homo sapiens) (Q7KZI7 whole entry): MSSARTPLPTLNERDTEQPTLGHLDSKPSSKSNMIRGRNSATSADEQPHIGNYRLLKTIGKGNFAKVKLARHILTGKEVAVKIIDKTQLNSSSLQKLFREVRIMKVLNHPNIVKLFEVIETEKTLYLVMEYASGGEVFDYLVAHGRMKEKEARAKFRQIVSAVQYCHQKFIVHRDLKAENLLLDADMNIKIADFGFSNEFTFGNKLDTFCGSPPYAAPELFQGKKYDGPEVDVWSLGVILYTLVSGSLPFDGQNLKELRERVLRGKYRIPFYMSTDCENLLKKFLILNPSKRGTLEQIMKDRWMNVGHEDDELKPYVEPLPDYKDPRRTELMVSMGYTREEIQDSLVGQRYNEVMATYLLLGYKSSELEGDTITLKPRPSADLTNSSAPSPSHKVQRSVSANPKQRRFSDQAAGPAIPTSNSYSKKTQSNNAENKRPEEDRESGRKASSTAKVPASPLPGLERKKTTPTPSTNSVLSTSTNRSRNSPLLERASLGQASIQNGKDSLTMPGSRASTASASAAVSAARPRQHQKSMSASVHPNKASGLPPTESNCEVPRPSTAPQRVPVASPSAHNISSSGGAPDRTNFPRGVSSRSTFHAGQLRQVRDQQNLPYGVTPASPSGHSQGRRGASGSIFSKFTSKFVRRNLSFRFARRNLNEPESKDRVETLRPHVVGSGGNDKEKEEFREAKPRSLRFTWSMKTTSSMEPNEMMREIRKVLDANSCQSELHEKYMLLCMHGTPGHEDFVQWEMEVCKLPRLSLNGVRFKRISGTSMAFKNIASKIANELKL

[38] = target: Mitogen-activated protein kinase 11 (Homo sapiens) (UniProt Q15759); experiment: Inhibition of p38beta at 10 uM; values are per cent of control
[39] = target: Cyclin-dependent kinase-like 3 (Homo sapiens) (UniProt Q8IVW4); experiment: Inhibition of CDKL3 at 10 uM; settings: values are per cent of control
[40] = target: Bone morphogenetic protein receptor type-1B (Homo sapiens) (UniProt O00238); experiment: Inhibition of BMPR1B at 10 uM; settings: values are per cent of control
Sequence of Bone morphogenetic protein receptor type-1B (Homo sapiens) (O00238 whole entry): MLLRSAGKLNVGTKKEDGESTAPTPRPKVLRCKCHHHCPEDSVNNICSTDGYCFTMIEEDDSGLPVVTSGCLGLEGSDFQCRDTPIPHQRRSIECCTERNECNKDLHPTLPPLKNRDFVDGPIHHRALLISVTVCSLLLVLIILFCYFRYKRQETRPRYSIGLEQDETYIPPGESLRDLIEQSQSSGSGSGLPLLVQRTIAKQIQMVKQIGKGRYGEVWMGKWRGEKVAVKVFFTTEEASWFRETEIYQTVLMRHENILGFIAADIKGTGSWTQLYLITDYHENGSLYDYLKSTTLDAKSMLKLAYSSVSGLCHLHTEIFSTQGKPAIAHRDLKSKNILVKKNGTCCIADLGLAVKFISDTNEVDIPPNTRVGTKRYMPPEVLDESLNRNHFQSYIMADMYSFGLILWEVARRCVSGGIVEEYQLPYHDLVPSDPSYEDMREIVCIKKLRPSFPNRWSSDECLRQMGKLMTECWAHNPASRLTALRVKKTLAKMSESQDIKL

[41] = target: Calcium/calmodulin-dependent protein kinase kinase 1 (Homo sapiens) (UniProt Q8N5S9); experiment: Inhibition of CAMKK1 at 10 uM; settings: values are per cent of control
[42] = target: Serine/threonine-protein kinase Nek4 (Homo sapiens) (UniProt P51957); experiment: Inhibition of NEK4 at 10 uM
[43] = tested on: Receptor-type tyrosine-protein kinase FLT3 (Homo sapiens), P36888 [N841I]; experiment: Inhibition of FLT3 N841I mutant at 10 uM; settings: values are per cent of control

Compound: CCN1CCN(Cc2ccc(NC(=O)c3ccc(C)c(C#Cc4cnc5[nH]ccc5c4)c3)cc2C(F)(F)F)CC1
- residual binding, % of control [1]: 2.6%
- level, % of control [2]: 100%
- residual binding, % of control [3]: 94%
- inhibition [4]: 100%
- inhibition [5]: 7.7%
- residual binding, % of control [6]: 24%
- inhibition [7]: 9.5%
- inhibition [8]: 50%
- residual binding, % of control [9]: 0.25%
- EC50 [10]: < 1 nM
- inhibition [11]: 36%
- residual binding, % of control [12]: 2.8%
- level, % of control [13]: 0.85%
- residual binding, % of control [14]: 0.15%
- inhibition [15]: 20%
- level, % of control [16]: 3.8%
- residual binding, % of control [17]: 100%
- residual binding, % of control [18]: 100%
- residual binding, % of control [19]: 54%
- residual binding, % of control [20]: 0%
- inhibition [21]: 77%
- residual binding, % of control [22]: 11%
- level, % of control [23]: 0%
- inhibition [24]: 84%
- inhibition [25]: 42%
- residual binding, % of control [26]: 0.1%
- level, % of control [27]: 0.25%
- residual binding, % of control [28]: 38%
- EC50 [29]: 80 nM
- inhibition [30]: 97%
- inhibition [31]: 100%
- residual binding, % of control [32]: 90%
- level, % of control [33]: 0%
- residual binding, % of control [34]: 0.6%
- residual binding, % of control [35]: 3.7%
- inhibition [36]: 54%
- residual binding, % of control [37]: 83%
- level, % of control [38]: 0%
- residual binding, % of control [39]: 1.9%
- residual binding, % of control [40]: 72%
- residual binding, % of control [41]: 69%
- inhibition [42]: 14%
- residual binding, % of control [43]: 0%

Compound: CCN1CCN(Cc2ccc(NC(=O)c3ccc(C)c(C#Cc4cccnc4)c3)cc2C(F)(F)F)CC1
- residual binding, % of control [1]: 1.8%
- level, % of control [2]: 95%
- residual binding, % of control [3]: 70%
- inhibition [4]: 92%
- inhibition [5]: 58%
- residual binding, % of control [6]: 27%
- inhibition [7]: 40%
- inhibition [8]: 88%
- residual binding, % of control [9]: 1.3%
- EC50 [10]: < 1 nM
- inhibition [11]: 55%
- residual binding, % of control [12]: 1%
- level, % of control [13]: 1.2%
- residual binding, % of control [14]: 0.25%
- inhibition [15]: 59%
- level, % of control [16]: 9.8%
- residual binding, % of control [17]: 100%
- residual binding, % of control [18]: 100%
- residual binding, % of control [19]: 51%
- residual binding, % of control [20]: 0%
- inhibition [21]: 70%
- residual binding, % of control [22]: 4.1%
- level, % of control [23]: 0.75%
- inhibition [24]: 54%
- inhibition [25]: 100%
- residual binding, % of control [26]: 0.1%
- level, % of control [27]: 0.35%
- residual binding, % of control [28]: 100%
- EC50 [29]: 92 nM
- inhibition [30]: 88%
- inhibition [31]: 100%
- residual binding, % of control [32]: 95%
- level, % of control [33]: 0%
- residual binding, % of control [34]: 11%
- residual binding, % of control [35]: 8.2%
- inhibition [36]: 66%
- residual binding, % of control [37]: 100%
- level, % of control [38]: 0%
- residual binding, % of control [39]: 0.65%
- residual binding, % of control [40]: 78%
- residual binding, % of control [41]: 53%
- inhibition [42]: 6.4%
- residual binding, % of control [43]: 0%
